# Measurements as given in patent publication US4352809A, “Method of producing alpha2 antagonism” (Smithkline Corporation, priority 1981, dated 1982).
# Counter-ions that a name gives are not always drawn.
# Biological target: T1, alpha2 -adrenoceptor (Cavia porcellus, UniProt Q60474)
# T1 construct: The left atrium is removed, dissected free of extraneous tissue and mounted in a 2 ml. superfusion chamber; from tissue; host or cells: isolated left atrium of male guinea pig (prejunctional receptors on sympathetic nerve terminals)
# T1 sequence (Q60474 1-464): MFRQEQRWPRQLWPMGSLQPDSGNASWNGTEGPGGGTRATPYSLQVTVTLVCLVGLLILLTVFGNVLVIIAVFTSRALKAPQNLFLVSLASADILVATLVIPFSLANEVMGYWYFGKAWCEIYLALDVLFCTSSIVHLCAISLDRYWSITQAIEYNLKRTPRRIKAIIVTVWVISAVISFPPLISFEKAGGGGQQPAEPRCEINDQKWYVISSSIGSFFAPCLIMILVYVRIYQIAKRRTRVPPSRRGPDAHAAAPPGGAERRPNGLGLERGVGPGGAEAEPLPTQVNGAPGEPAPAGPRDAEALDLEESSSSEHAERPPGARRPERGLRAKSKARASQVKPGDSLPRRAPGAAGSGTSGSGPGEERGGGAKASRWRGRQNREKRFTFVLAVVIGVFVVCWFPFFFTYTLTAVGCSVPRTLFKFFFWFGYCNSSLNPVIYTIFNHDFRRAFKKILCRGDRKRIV
# Assay: prejunctional alpha2-antagonist activity, isolated superfused guinea pig left atrium (shift of the clonidine concentration-response curve)
# Format: cell-based
# Details: isolated perfused guinea pig left atrium; antagonist concentration that shifts the clonidine log concentration-response curve to the right by a factor of 2; read-out: KB (receptor dissociation constant of the antagonist)
# Experimental: Briefly, the heart is removed from a pentobarbitol-anesthetized male guinea pig. The left atrium is removed, dissected free of extraneous tissue and mounted in a 2 ml. superfusion chamber. The tissue is paced at 60 pulse/minute and the sympathetic nerves excited at 6 minute intervals by field stimulation. The response to nerve stimulation is measured as the difference in contractile force between the basal contraction and peak contraction following a nerve stimulation. A concentration-response curve for clonidine (alpha2 -agonist) is prepared by administering increasing concentration of clonidine following each successive stimulation. The tissue is then superfused with the alpha2 -antagonist to be tested for thirty minutes and the clonidine concentration-effect curve was repeated in the presence of antagonist. The receptor dissociation constant of the antagonist (KB) is defined as the antagonist concentration required to shift the log concentration-response curve of the agonist to the right by a factor of 2.
smiles,measurement,value
"c1cc2snnc2c2c1CCNC2 [[1,2,3]thiadiazolo[5,4-h]-6,7,8,9-tetrahydroisoquinoline hydrochloride]",Kb,220 nM
